Measurements reported in PubChem BioAssay AID1506 (NMMLSC, 2009).
Calls of active or inactive are those of the source. No rule for the calls is given here.

Tested on: S. aureus strains, lipase production inhibition
Assay: inhibition of S. aureus lipase production, S. aureus quorum sensing inhibitors, NM300, NM400, MRSA3757 (AID 1506)
Conditions: for inhibition: stronger effect = higher value
[1] = lipase inhibition, MRSA3757, at 12 µM
[2] = lipase inhibition, strain NM400, at 12 µM

outcome (at 12 µM) | inhibition [1] [%] | inhibition [2] [%] | inhibition (at 30 µM) [%] | inhibition (lipase inhibition, strain NM300, at 30 µM) [%] | inhibition (at 6 µM) [%] | inhibition (lipase inhibition, strain NM300, at 6 µM) [%] | Compound
inactive; agr3 active | 0 | 84 | – | – | – | – | CC1CCCN(C(C(=O)Nc2ccc3c(c2)OCO3)c2ccccc2)C1 (stereo not given)
– | – | – | 80 | 90 | – | – | Cc1c(Cl)cccc1Nc1ccccc1C(=O)O
inactive; agr3 active | 0 | 68 | – | – | – | – | CC1CCCN(C(C(=O)Nc2ccc3c(c2)OCCO3)c2ccccc2)C1 (stereo not given)
– | – | – | – | – | 80 | 95 | CCc1oc2ccccc2c1C(=O)c1cc(Br)c(O)c(Br)c1
